Patent US20110177156A1, “Sterol-Modified Amphiphilic Lipids” (priority 2007, published 2011)
Where two headings read alike, the source gives them in different places.

Tests used:
phospholipase A2 (PLA2) [1] = molecular target: T1, phospholipase A2 (PLA2) (Bos taurus, UniProt P00593); assay: Drug release by phospholipase A2 (bovine); type: biochemical; details: bovine PLA2, 37° C., pH 8.8, Triton X-100
T1 construct: purchased Aldrich-Sigma
From the text: All PLA2s were from Aldrich-Sigma. […] The flask was placed under high vacuum overnight.

phospholipase A2 (PLA2) [2] = details: for release of all-trans retinoic acid from SML7a: pH 8.8, Triton X-100
Method: Retinoic acid was used as the model drug for the investigation of enzyme triggered drug release. The release of all-trans retinoic acid from SML7a (1-cholesteryl-2-all-trans-retinoyl-sn-glycerophosphocholine) was evaluated with phospholipase A2 (PLA2) from a variety of sources including bovine, naja mossambica, and streptomyces vialaceoruber. All PLA2s were from Aldrich-Sigma. A chloroform solution of SML7a (50 μmol) in 50 mL round-bottom flask was evaporated by the rotavapor. The flask was placed under high vacuum overnight. The lipid film was hydrated in 10 mL pH 8.8 buffer containing 20 mM Triton X-100, 10 mM CaCl2, 10 mM HEPES, and 50 mM KCl. […] Aliquots of the solution (250 μL) were preincubated at 37° C. for 10 minutes, then used for the PLA2 assay. Aliquots of PLA2 solution (25 units in 250 μL pH 8.8 buffer of 10 mM HEPES, and 50 mM KCl) were preincubated at 37° C. for 10 minutes, and mixed with the aliquots of pre-warmed solution of SML7a. At different time point, the hydrolysis samples were analyzed by TLC, and quantified by densimeter.

T1 sequence (P00593 23-145): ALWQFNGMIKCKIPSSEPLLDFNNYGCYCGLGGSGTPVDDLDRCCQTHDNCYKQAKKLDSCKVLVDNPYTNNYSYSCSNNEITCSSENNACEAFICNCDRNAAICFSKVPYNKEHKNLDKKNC

## 1-cholesteryl-2-all-trans-retinoyl-sn-glycerophosphocholine [SML7a]
Phospholipase A2 (PLA2) [1]
  release of all-trans retinoic acid from SML7a: completely release
Phospholipase A2 (PLA2) [2]; naja mossambica PLA2, 37° C.
  release of all-trans retinoic acid from SML7a: completely release
Phospholipase A2 (PLA2) [2]; naja mossambica PLA2 compared with the two other PLA2
  relative activity of the PLA2 on SML7a: highest activity
Phospholipase A2 (PLA2) [2]; streptomyces vialaceoruber PLA2, 37° C.
  release of all-trans retinoic acid from SML7a: completely release
